SMILES strings stand for the structures.

Experimental findings from patent US20090030038A1, “Novel 8-Sulfonylamino-3 Aminosubstituted Chroman or Tetrahydronaphtalene Derivatives Modulating the 5Ht6 Receptor” (ASTRAZENECA AB, priority 2005, published 2009) are described below.

For the assay, the target named is T1, rat striatal 5HT6 receptors (Rattus norvegicus, UniProt P31388).
T1 construct: Striatal tissue from adult rats (Sprague-Dawley, 320-370 g, B & K Sweden) were dissected out, weighed and homogenized; from tissue; host or cells: rat striatum (Sprague-Dawley) membranes
T1 sequence (P31388 whole entry): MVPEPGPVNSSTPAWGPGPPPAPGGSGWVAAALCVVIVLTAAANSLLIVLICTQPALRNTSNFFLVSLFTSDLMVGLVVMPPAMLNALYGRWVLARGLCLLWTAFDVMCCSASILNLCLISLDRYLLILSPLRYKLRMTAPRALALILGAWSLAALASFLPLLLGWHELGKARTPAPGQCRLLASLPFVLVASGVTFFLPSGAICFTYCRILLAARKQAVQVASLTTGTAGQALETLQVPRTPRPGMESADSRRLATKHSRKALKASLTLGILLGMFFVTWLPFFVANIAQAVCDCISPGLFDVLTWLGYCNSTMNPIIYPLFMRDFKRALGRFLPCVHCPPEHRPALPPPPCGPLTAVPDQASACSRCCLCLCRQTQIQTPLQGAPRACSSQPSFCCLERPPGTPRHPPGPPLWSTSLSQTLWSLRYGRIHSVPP
The assay is described as follows: [125I]SB258585 binding to rat striatal 5HT6 receptors. The conditions noted are these: competition with [125I]SB258585, rat striatal membranes. The procedure:
Method for [125I]SB258585 binding to rat striatal 5HT6 receptors
[125I]SB258585 (1) with specific activity 2000 Ci/mmol was purchased from Amersham Biosciences Europe GmbH, Freiburg, Germany. Other chemicals were purchased from commercial sources and were of analytical grade.
Striatal tissue from adult rats (Sprague-Dawley, 320-370 g, B & K Sweden) were dissected out, weighed and homogenized in buffer containing 50 mM Tris-HCl, 4 mM MgCl2, 1 mM EDTA, 10 μM pargyline and protease inhibitor (Complete, Roche Diagnostics) pH 7.4 using an Ultra-Turrax T8 (IKA Labortechnik, Germany). The tissue homogenate was centrifuged at 48 000×g for 10 min and the pellet was resuspended and recentrifuged as above. The final membranes were diluted in buffer to a concentration of 60 mg original wet weight (w.w.) per ml and stored in aliquots at −70° C.
Saturation binding studies were carried out in duplicate with 1-3 mg w.w. per tube in 0.5 ml buffer (50 mM Tris, 4 mM MgCl2, 100 mM NaCl, 1 mM EDTA, 5 mM ascorbate and 10 μM pargyline at pH 7.4), 0.2 nM [125I]SB258585 and unlabelled SB258585 to give a final concentration range of 0.23-20 nM (12 conc.). Non-specific binding was determined in the presence of 10 μM methiothepin. In the competition experiments 0.8-2 mg w.w. per tube and a radioligand concentration of 0.5-1 nM were used with 7 concentrations of the competing drug pre-dissolved in DMSO and diluted in buffer. The assays were incubated for 1-3 hours at room temperature, and terminated by rapid filtration through Whatman GF/B filters pretreated with 0.3% polyethyleneimine using a Brandel cell harvester. The radioactivity was determined in a Packard Tri-Carb 2900TR liquid scintillation counter. Data were analyzed by non-linear regression analyses using PRISM 4.00 (GraphPad Software Inc., San Diego, Calif.).
Hirst, W. D., Minton, J. A. L., Bromidge, S. M., Moss, S. F., Latter, A., Riley, G., Routledge, C., Middlemiss, D. N. & Price, G. W. (2000). Characterization of [125I]-SB-258585 binding to human recombinant and native 5HT6 receptors in rat, pig and human brain tissue. Br. J. Pharmacol., 130, 1597-1605.
`COc1ccc(NS(=O)(=O)c2cccc(Br)c2)c2c1C[C@@H](N(C)C)CO2` [Example 3, 3-Bromo-N-[(3R)-3-(dimethylamino)-5-methoxy-3,4-dihydro-2H-chromen-8-yl]benzenesulfonamide]: the Ki (as a rule, a dissociation constant, usually derived from enzyme kinetics or from competition with a known ligand) turned out to be 7.5 ± 3.6 nM.
In turn, `COc1ccc(NS(=O)(=O)c2ccc3ccccc3c2)c2c1C[C@@H](N(C)C)CO2` [Example 24, N-[(3R)-3-(dimethylamino)-5-methoxy-3,4-dihydro-2H-chromen-8-yl]naphthalene-2-sulfonamide] registered a Ki of 42 ± 27 nM.
To `COc1ccc(NS(=O)(=O)c2ccccc2-c2ccccc2)c2c1C[C@@H](N(C)C)CO2` [Example 122, N-[(3R)-3-(dimethylamino)-5-methoxy-3,4-dihydro-2H-chromen-8-yl]-1,1′-biphenyl-2-sulfonamide] belongs 2 ± 0.6 nM; to `COc1ccc(NS(=O)(=O)c2ccc(-c3ccnc(SC)n3)s2)c2c1C[C@@H](N(C)C)CO2` [Example 135, N-[(3R)-3-(dimethylamino)-5-methoxy-3,4-dihydro-2H-chromen-8-yl]-5-[2-(methylthio)pyrimidin-4-yl]thiophene-2-sulfonamide], 49 ± 16 nM.
As to `CN(C)[C@H]1CCc2c(cccc2NS(=O)(=O)c2cccc(Br)c2)C1` [Example 170, (2S)-5-{[(3-Bromophenyl)sulfonyl]amino}-N,N-dimethyl-1,2,3,4-tetrahydronaphthalen-2-ammonium Acetate], affinity was put at a Ki of 74 nM.
As for `COc1ccc(NS(=O)(=O)c2ccccc2-c2ccccc2)c2c1C[C@@H](N(C)C)CC2` [Example 176, N-[(6S)-6-(dimethylamino)-4-methoxy-5,6,7,8-tetrahydronaphthalen-1-yl]-1,1′-biphenyl-2-sulfonamide], the figure is 13 ± 5.9 nM; as for `COc1ccc(NS(=O)(=O)c2sc3ccc(F)cc3c2C)c2c1C[C@@H](N(C)C)CC2` [Example 181, N-[(6S)-6-(dimethylamino)-4-methoxy-5,6,7,8-tetrahydronaphthalen-1-yl]-5-fluoro-3-methyl-1-benzothiophene-2-sulfonamide], 19 ± 0.8 nM.
The compound `COc1ccc(NS(=O)(=O)c2cc(Cl)cc(Cl)c2)c2c1C[C@@H](N1CCCC1)CC2` [Example 313, 3,5-Dichloro-N-[(6S)-4-methoxy-6-pyrrolidin-1-yl-5,6,7,8-tetrahydronaphthalen-1-yl]benzenesulfonamide] showed a Ki of 290 ± 190 nM.
